Assay results from paper PMC6586855, “Orobol, an Enzyme-Convertible Product of Genistein, exerts Anti-Obesity Effects by Targeting Casein Kinase 1 Epsilon” (Scientific Reports, 2019).

Legend:
PI3Kδ = target: T1, PI3Kδ (Homo sapiens, UniProt O00329); test: kinase inhibition assay; assay type: biochemical
T1 construct: gene PIK3CD; commercial kinase; with Phosphatidylinositol 3-kinase regulatory subunit alpha
Excerpt: kinase inhibition assay on PI3Kδ

RON/MST1R = target: T2, RON/MST1R (Homo sapiens, UniProt Q04912); test: […]-ATP kinase assay, P81 filter binding; assay type: biochemical
T2 construct: Reaction Biology kinase panel
T2 sequence (Q04912 979-1400 limits assumed): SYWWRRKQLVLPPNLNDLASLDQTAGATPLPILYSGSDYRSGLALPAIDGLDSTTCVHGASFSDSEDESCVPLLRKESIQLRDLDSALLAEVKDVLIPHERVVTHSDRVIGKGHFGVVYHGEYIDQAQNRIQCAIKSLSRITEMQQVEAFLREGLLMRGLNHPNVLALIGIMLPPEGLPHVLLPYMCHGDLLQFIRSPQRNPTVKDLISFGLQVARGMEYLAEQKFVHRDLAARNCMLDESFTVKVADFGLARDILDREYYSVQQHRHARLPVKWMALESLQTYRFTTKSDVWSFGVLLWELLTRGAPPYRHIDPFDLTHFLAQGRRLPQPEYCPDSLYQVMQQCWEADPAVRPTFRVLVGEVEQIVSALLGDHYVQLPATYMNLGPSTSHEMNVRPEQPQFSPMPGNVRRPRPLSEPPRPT

MUSK = target: T3, MUSK (Homo sapiens, UniProt O15146); test: […]-ATP kinase assay, P81 filter binding; assay type: biochemical
T3 construct: Reaction Biology kinase panel
T3 sequence (O15146 517-869 limits assumed): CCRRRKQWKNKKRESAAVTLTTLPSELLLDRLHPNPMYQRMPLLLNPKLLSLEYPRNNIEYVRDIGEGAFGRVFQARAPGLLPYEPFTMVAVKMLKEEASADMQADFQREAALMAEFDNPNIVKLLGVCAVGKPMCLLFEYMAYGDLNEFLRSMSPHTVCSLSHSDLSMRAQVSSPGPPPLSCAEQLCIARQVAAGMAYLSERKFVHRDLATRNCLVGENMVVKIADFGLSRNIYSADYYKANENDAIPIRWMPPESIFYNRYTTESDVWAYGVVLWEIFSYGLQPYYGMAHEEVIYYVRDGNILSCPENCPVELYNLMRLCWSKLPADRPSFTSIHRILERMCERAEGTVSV

PI3Kα = target: T4, PI3Kα (Homo sapiens, UniProt P42336); test: kinase inhibition assay; assay type: biochemical
T4 construct: gene PIK3CA; commercial kinase; with Phosphatidylinositol 3-kinase regulatory subunit alpha
T4 sequence (P42336 whole entry): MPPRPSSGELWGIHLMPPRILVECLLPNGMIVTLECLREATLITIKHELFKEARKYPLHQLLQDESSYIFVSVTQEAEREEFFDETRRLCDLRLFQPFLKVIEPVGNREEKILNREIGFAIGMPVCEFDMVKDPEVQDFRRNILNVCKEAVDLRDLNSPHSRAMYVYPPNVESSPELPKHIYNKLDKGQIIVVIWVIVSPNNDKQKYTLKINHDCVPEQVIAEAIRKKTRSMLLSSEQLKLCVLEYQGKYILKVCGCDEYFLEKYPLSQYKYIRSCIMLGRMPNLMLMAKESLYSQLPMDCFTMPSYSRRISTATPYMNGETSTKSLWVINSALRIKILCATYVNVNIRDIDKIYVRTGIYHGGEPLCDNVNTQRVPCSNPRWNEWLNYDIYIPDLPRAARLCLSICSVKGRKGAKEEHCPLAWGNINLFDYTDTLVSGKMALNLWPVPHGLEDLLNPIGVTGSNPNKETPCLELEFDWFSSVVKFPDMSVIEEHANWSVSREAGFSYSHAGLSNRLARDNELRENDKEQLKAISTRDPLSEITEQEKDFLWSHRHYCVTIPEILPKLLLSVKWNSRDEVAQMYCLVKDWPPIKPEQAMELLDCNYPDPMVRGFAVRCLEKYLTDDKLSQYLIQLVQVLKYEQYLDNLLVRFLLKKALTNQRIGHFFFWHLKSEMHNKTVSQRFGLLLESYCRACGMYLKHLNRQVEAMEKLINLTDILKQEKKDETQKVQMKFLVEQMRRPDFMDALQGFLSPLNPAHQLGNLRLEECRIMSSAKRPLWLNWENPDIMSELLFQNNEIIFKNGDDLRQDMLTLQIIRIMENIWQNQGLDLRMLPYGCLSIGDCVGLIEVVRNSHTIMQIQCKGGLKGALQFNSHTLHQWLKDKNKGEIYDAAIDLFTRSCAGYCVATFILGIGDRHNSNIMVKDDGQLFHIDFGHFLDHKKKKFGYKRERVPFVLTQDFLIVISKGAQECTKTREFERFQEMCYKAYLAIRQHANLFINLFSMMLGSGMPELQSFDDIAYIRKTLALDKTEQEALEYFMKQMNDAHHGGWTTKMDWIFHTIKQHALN
T4 sequence (P27986 2-724 partner): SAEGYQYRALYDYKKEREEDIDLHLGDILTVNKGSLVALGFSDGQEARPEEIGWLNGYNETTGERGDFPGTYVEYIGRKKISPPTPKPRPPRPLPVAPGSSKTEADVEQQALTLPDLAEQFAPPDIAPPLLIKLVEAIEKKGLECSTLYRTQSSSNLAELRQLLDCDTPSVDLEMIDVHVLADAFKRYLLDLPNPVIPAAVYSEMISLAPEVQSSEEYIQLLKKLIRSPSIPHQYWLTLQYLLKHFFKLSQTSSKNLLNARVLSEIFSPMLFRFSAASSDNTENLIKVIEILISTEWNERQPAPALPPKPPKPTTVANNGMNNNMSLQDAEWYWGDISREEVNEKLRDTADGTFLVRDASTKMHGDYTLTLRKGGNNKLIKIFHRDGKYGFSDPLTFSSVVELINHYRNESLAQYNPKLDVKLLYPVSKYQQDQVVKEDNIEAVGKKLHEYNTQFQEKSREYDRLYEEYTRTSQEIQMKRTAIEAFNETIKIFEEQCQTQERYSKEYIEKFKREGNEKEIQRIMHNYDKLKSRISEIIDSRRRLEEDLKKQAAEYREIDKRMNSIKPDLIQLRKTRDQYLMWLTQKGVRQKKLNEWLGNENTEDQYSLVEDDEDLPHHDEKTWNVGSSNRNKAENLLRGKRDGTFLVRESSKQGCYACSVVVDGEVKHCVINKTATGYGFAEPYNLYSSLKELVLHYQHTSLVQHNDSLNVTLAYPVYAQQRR
Excerpt: kinase inhibition assay on PI3Kα

PBK/TOPK = target: T5, PBK/TOPK (Homo sapiens, UniProt Q96KB5); test: […]-ATP kinase assay, P81 filter binding; assay type: biochemical
T5 construct: Reaction Biology kinase panel
T5 sequence (Q96KB5 1-322): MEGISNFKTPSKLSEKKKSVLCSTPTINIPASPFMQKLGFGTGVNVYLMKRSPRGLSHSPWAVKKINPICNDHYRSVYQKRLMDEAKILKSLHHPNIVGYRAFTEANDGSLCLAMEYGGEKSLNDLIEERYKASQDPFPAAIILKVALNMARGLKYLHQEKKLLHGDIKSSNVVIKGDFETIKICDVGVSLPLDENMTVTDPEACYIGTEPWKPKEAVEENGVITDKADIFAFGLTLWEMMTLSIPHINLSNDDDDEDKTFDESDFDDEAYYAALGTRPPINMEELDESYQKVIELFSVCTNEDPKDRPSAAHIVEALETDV

PI3Kγ = target: T6, PI3Kγ (Homo sapiens, UniProt P48736); test: kinase inhibition assay; assay type: biochemical
T6 construct: gene PIK3CG; commercial kinase
Excerpt: kinase inhibition assay on PI3Kγ

PI3Kβ = target: T7, PI3Kβ (Homo sapiens, UniProt P42338); test: kinase inhibition assay; assay type: biochemical
T7 construct: gene PIK3CB; commercial kinase; with Phosphatidylinositol 3-kinase regulatory subunit alpha
Excerpt: kinase inhibition assay on PI3Kβ

MNK1 = target: T8, MNK1 (Homo sapiens, UniProt Q9BUB5); test: […]-ATP kinase assay, P81 filter binding; assay type: biochemical
T8 construct: gene MKNK1; Reaction Biology kinase panel

KDR/VEGFR2 = target: T9, KDR/VEGFR2 (Homo sapiens, UniProt P35968); test: […]-ATP kinase assay, P81 filter binding; assay type: biochemical
T9 construct: Reaction Biology kinase panel

TNIK = target: T10, TNIK (Homo sapiens, UniProt Q9UKE5); test: […]-ATP kinase assay, P81 filter binding; assay type: biochemical
T10 construct: Reaction Biology kinase panel

CK1ε [1] = target: T11, CK1ε (Homo sapiens, UniProt P49674); test: pull-down on orobol-Sepharose 4B beads, immunoblot; assay type: binding; settings: orobol coupled to beads; pH 7.5, 4 °C; competed by ATP
T11 construct: gene CSNK1E; commercial active kinase; Reaction Biology panel for activity, SignalChem protein for pull-down
T11 sequence (P49674 whole entry): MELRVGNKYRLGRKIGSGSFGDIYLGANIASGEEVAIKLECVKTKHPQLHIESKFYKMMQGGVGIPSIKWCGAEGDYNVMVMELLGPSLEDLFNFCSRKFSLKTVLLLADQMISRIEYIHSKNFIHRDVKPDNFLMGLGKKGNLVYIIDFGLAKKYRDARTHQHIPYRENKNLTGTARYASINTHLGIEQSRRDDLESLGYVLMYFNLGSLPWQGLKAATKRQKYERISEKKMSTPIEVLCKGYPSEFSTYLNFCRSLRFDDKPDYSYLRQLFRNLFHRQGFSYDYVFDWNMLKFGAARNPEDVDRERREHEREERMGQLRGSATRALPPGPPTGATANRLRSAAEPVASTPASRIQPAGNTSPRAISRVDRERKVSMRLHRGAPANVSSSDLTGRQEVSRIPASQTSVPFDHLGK

CK1ε [2] = target: T11, CK1ε; test: […]-ATP kinase assay, P81 filter binding; assay type: biochemical
NEK6 = target: T12, NEK6 (Homo sapiens, UniProt Q9HC98); test: […]-ATP kinase assay, P81 filter binding; assay type: biochemical
T12 construct: Reaction Biology kinase panel
T12 sequence (Q9HC98 whole entry): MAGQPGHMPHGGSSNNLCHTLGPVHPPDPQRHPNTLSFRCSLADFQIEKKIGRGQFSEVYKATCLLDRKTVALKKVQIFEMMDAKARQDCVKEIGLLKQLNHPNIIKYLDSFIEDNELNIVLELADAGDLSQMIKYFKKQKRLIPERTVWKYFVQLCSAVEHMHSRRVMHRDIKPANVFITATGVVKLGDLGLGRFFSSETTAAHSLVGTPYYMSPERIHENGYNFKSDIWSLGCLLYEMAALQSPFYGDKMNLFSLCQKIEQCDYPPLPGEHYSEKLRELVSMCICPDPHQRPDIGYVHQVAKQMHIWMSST

CK1ε [3] = target: T13, CK1ε (Mus musculus, UniProt Q9JMK2); test: pull-down from 3T3-L1 lysate on orobol-Sepharose 4B beads, immunoblot; assay type: biochemical; settings: orobol coupled to beads; pH 7.5, 4 °C
T13 construct: gene Csnk1e; endogenous protein in 3T3-L1 preadipocyte lysate, detected with anti-CK1ε antibody
T13 sequence (Q9JMK2 1-416): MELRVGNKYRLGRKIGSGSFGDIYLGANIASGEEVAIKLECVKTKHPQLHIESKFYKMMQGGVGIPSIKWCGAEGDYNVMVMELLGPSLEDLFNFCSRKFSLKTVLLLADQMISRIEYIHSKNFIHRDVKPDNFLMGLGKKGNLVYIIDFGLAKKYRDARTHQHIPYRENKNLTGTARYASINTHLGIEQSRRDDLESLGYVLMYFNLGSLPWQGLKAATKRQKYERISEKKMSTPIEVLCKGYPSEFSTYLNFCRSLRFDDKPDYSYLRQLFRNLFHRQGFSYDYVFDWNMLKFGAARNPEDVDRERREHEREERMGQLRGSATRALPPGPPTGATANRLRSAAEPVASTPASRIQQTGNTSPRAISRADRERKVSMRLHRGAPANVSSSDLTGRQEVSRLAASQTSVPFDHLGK

CDK5/p25 = target: T14, CDK5/p25 (Homo sapiens, UniProt Q00535); test: […]-ATP kinase assay, P81 filter binding; assay type: biochemical
T14 construct: Reaction Biology kinase panel; complex with p25, the C-terminal fragment of p35
T14 sequence (Q00535 whole entry, the tested form may be a part): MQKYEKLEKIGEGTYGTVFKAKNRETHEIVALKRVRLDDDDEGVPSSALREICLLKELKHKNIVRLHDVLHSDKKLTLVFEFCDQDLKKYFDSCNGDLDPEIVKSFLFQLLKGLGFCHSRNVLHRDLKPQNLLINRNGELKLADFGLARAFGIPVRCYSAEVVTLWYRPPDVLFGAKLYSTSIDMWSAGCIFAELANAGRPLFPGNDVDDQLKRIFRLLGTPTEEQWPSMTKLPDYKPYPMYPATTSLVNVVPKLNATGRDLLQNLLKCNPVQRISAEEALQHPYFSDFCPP
T14 sequence (Q15078 99-307 partner limits assumed): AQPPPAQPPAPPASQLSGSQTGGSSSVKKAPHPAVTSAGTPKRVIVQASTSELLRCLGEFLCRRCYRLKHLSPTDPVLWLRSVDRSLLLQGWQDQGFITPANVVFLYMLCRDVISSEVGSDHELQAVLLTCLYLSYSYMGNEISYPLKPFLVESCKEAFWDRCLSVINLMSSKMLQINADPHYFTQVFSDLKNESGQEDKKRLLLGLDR

KHS/MAP4K5 = target: T15, KHS/MAP4K5 (Homo sapiens, UniProt Q9Y4K4); test: […]-ATP kinase assay, P81 filter binding; assay type: biochemical
T15 construct: Reaction Biology kinase panel
T15 sequence (Q9Y4K4 whole entry): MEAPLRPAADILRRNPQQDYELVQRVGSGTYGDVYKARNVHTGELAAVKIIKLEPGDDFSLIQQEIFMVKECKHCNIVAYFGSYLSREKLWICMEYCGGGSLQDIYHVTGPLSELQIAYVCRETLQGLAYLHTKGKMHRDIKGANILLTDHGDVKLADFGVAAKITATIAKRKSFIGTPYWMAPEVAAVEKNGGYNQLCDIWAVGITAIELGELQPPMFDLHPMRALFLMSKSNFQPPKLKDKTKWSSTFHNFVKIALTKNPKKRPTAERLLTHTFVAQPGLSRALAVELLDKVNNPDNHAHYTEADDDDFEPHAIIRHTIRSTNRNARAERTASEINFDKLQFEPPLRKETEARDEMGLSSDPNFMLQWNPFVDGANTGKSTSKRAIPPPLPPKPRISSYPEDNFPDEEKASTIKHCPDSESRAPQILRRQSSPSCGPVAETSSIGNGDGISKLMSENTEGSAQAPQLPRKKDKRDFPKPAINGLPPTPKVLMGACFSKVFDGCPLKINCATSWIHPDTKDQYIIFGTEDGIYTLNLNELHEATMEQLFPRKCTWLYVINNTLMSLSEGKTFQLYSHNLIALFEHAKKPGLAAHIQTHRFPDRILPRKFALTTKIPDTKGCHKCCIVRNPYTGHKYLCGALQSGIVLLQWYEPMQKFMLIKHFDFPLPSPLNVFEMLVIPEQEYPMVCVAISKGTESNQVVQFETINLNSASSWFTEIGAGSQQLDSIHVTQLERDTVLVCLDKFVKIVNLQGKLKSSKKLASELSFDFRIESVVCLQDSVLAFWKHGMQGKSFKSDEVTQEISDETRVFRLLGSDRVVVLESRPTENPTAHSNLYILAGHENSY

T1 sequence (O00329 whole entry): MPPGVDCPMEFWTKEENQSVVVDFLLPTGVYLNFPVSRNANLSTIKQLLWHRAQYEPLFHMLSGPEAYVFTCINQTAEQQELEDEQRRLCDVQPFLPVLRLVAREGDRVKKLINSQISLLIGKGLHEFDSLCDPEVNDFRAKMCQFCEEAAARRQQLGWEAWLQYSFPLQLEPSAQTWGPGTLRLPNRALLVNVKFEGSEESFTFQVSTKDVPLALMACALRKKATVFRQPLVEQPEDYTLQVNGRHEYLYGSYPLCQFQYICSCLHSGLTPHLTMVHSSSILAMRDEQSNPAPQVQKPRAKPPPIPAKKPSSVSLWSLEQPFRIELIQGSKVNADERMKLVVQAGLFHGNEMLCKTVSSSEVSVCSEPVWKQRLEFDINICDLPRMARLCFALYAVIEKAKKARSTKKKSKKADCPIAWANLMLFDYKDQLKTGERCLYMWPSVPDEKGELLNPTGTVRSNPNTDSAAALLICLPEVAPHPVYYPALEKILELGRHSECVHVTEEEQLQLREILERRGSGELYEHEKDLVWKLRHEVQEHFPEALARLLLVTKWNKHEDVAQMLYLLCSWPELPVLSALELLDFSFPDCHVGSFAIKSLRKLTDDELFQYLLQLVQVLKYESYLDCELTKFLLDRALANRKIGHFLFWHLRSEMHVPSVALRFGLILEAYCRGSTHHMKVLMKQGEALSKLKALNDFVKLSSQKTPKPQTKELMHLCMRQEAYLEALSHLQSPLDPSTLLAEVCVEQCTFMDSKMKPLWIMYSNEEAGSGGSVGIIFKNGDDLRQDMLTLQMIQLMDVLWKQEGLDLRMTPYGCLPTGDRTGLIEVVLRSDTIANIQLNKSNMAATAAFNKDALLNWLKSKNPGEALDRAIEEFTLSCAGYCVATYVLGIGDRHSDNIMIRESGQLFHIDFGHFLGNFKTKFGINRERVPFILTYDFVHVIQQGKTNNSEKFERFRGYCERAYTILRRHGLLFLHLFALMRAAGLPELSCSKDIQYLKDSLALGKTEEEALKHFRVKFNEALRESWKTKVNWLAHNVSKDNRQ
T1 sequence (P27986 2-724 partner): as the sequence (P27986 2-724 partner) above

O=c1c(-c2ccc(O)c(O)c2)coc2cc(O)cc(O)c12 [orobol]
IC50 (PI3Kδ): 5270 nM
activity at 1 µM (RON/MST1R): 78%
IC50 (MUSK): 1480 nM
IC50 (PI3Kα): 3460 nM
IC50 (PBK/TOPK): 1670 nM
IC50 (PI3Kγ): 4760 nM
IC50 (PI3Kβ): 5440 nM
IC50 (MNK1): 2130 nM
IC50 (KDR/VEGFR2): 4450 nM
IC50 (TNIK): 1540 nM
pull-down on orobol-Sepharose 4B beads, immunoblot (CK1ε [1]): The CK1ε kinase bound to orobol–sepharose 4B beads, but not to control sepharose 4B beads
IC50 (CK1ε [2]): 1240 nM
activity at 1 µM (NEK6): 79%
pull-down from 3T3-L1 lysate on orobol-Sepharose 4B beads, immunoblot (CK1ε [3]): Orobol directly interacts with CK1ε in 3T3-L1 cell lysates
activity at 1 µM (CDK5/p25): 78%
IC50 (KHS/MAP4K5): 1420 nM
